# The source made the active and inactive calls. The rule behind the calls is not given here.
# Tests used:
# HT-29 [1] = assay: Antiproliferative activity against human HT-29 cells assessed as reduction in cell growth incubated for 48 hrs by MTT assay; type: functional, cell-based; conditions: HT-29, 48 h
# A549 = assay: Antiproliferative activity against human A549 cells assessed as reduction in cell growth incubated for 48 hrs by MTT assay; type: functional, cell-based; conditions: A549, 48 h
# [2] = biological target: Vascular endothelial growth factor receptor 2 (Homo sapiens) (UniProt P35968); assay: Inhibition of VEGFR2 in human HT-29 cells assessed as reduction in VEGFR2 phosphorylation incubated for 48 hrs by Western blot analysis; type: cell-based; conditions: dose 1-10 µM
# Sequence of Vascular endothelial growth factor receptor 2 (Homo sapiens) (P35968 whole entry): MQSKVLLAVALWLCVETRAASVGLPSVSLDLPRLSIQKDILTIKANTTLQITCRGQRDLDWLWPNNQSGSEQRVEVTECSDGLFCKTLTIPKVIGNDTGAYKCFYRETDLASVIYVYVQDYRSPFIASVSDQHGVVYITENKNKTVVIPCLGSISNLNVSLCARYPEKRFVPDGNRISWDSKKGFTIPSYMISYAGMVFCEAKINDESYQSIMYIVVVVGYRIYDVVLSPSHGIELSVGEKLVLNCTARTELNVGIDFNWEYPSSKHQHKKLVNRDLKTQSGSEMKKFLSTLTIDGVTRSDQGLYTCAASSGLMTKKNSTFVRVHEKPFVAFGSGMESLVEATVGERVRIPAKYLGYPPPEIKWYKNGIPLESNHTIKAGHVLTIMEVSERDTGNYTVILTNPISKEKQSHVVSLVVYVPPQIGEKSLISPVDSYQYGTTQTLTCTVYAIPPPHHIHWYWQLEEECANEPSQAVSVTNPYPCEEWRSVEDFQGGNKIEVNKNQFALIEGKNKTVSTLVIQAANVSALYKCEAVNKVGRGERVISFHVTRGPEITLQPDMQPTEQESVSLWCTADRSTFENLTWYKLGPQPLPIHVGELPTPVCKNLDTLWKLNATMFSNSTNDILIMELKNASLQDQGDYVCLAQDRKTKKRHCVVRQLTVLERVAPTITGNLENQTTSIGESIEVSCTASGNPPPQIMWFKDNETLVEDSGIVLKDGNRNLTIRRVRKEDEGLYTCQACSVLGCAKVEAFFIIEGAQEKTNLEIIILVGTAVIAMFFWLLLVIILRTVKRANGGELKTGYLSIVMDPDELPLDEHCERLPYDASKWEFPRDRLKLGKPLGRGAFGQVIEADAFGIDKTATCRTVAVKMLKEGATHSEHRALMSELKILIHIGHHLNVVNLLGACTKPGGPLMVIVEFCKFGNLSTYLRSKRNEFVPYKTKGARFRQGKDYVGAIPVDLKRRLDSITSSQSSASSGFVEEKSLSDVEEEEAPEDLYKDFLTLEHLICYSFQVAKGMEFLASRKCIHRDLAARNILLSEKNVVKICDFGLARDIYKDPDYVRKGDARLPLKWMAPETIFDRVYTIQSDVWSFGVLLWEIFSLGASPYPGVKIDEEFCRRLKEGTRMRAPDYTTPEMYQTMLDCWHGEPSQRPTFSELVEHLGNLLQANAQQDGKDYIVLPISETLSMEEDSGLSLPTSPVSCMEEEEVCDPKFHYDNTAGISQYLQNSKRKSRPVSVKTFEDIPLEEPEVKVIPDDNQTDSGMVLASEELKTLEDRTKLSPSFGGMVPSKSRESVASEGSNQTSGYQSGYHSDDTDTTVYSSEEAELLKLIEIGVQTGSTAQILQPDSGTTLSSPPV
# [3] = biological target: Vascular endothelial growth factor receptor 2 (Homo sapiens) (UniProt P35968); assay: Inhibition of VEGFR2 in human HT-29 cells assessed as reduction in c-Raf expression incubated for 48 hrs by Western blot analysis; type: cell-based; conditions: dose 1-10 µM
# [4] = biological target: Vascular endothelial growth factor receptor 2 (Homo sapiens) (UniProt P35968); assay: Inhibition of VEGFR2 in human HT-29 cells assessed as reduction in ERK1/2 expression incubated for 48 hrs by Western blot analysis; type: cell-based; conditions: dose 1-10 µM
# [5] = biological target: Vascular endothelial growth factor receptor 2 (Homo sapiens) (UniProt P35968); assay: Inhibition of VEGFR2 in human HT-29 cells assessed as reduction in MEK expression incubated for 48 hrs by Western blot analysis; type: cell-based; conditions: dose 1-10 µM
# [6] = biological target: Vascular endothelial growth factor receptor 2 (Homo sapiens) (UniProt P35968); assay: Inhibition of VEGFR2 in human HT-29 cells assessed as reduction in ERK1/2 phosphorylation incubated for 48 hrs by Western blot analysis; type: cell-based; conditions: dose 1-10 µM
# HT-29 [7] = assay: Induction of apoptosis in human HT-29 cells assessed as early apoptotic cells incubated for 48 hrs by annexin V-FITC and PI staining based flow cytometry analysis; type: functional, cell-based; conditions: dose 1-10 µM
# HT-29 [8] = assay: Induction of apoptosis in human HT-29 cells assessed as late apoptotic cells incubated for 48 hrs by annexin V-FITC and PI staining based flow cytometry analysis; type: functional, cell-based; conditions: dose 1-10 µM
# HT-29 [9] = assay: Induction of apoptosis in human HT-29 cells assessed as viable cells at 1 uM incubated for 48 hrs by annexin V-FITC and PI staining based flow cytometry analysis (reference value: 88.2 %); type: functional; conditions: read-out: Activity
# HT-29 [10] = assay: Induction of apoptosis in human HT-29 cells assessed as early apoptotic cells at 1 uM incubated for 48 hrs by annexin V-FITC and PI staining based flow cytometry analysis (reference value: 1.01 %); type: functional
# HT-29 [11] = assay: Induction of apoptosis in human HT-29 cells assessed as late apoptotic cells at 1 uM incubated for 48 hrs by annexin V-FITC and PI staining based flow cytometry analysis (reference value: 1.08 %); type: functional
# HT-29 [12] = assay: Induction of apoptosis in human HT-29 cells assessed as necrotic cells at 1 uM incubated for 48 hrs by annexin V-FITC and PI staining based flow cytometry analysis (reference value: 9.68 %); type: functional
# HT-29 [13] = assay: Induction of apoptosis in human HT-29 cells assessed as viable cells at 5 uM incubated for 48 hrs by annexin V-FITC and PI staining based flow cytometry analysis (reference value: 88.2 %); type: functional; conditions: read-out: Activity
# HT-29 [14] = assay: Induction of apoptosis in human HT-29 cells assessed as early apoptotic cells at 5 uM incubated for 48 hrs by annexin V-FITC and PI staining based flow cytometry analysis (reference value: 1.01 %); type: functional
# HT-29 [15] = assay: Induction of apoptosis in human HT-29 cells assessed as late apoptotic cells at 5 uM incubated for 48 hrs by annexin V-FITC and PI staining based flow cytometry analysis (reference value: 1.08 %); type: functional
# HT-29 [16] = assay: Induction of apoptosis in human HT-29 cells assessed as necrotic cells at 5 uM incubated for 48 hrs by annexin V-FITC and PI staining based flow cytometry analysis (reference value: 9.68 %); type: functional
# HT-29 [17] = assay: Induction of apoptosis in human HT-29 cells assessed as viable cells at 10 uM incubated for 48 hrs by annexin V-FITC and PI staining based flow cytometry analysis (reference value: 88.2 %); type: functional; conditions: read-out: Activity
# HT-29 [18] = assay: Induction of apoptosis in human HT-29 cells assessed as early apoptotic cells at 10 uM incubated for 48 hrs by annexin V-FITC and PI staining based flow cytometry analysis (reference value: 1.01 %); type: functional
# HT-29 [19] = assay: Induction of apoptosis in human HT-29 cells assessed as late apoptotic cells at 10 uM incubated for 48 hrs by annexin V-FITC and PI staining based flow cytometry analysis (reference value: 1.08 %); type: functional
# HT-29 [20] = assay: Induction of apoptosis in human HT-29 cells assessed as necrotic cells at 10 uM incubated for 48 hrs by annexin V-FITC and PI staining based flow cytometry analysis (reference value: 9.68 %); type: functional
# HT-29 [21] = assay: Induction of apoptosis in human HT-29 cells assessed as increase in caspase3 expression incubated for 48 hrs by Western blot analysis; type: functional, cell-based; conditions: dose 1-10 µM
# HT-29 [22] = assay: Induction of apoptosis in human HT-29 cells assessed as upregulation of Bax expression at 1 to 10 uM incubated for 48 hrs by Western blot analysis; type: functional, cell-based; conditions: dose 1-10 µM
# HT-29 [23] = assay: Induction of apoptosis in human HT-29 cells assessed as downregulation of Bcl2 expression at 1 to 10 uM incubated for 48 hrs by Western blot analysis; type: functional, cell-based; conditions: dose 1-10 µM
# HT-29 [24] = assay: Induction of apoptosis in human HT-29 cells assessed as increase in ratio of Bax/Bcl2 at 1 to 10 uM incubated for 48 hrs by Western blot analysis; type: functional, cell-based; conditions: dose 1-10 µM
# HT-29 [25] = assay: Induction of cell cycle arrest in human HT-29 cells assessed as G1 phase accumulation at 1 uM incubated for 48 hrs by PI staining based flow cytometry analysis (reference value: 56.39 %); type: functional
# HT-29 [26] = assay: Induction of cell cycle arrest in human HT-29 cells assessed as S phase accumulation at 1 uM incubated for 48 hrs by PI staining based flow cytometry analysis (reference value: 36.98 %); type: functional
# HT-29 [27] = assay: Induction of cell cycle arrest in human HT-29 cells assessed as G2 phase accumulation at 1 uM incubated for 48 hrs by PI staining based flow cytometry analysis (reference value: 11.7 %); type: functional
# HT-29 [28] = assay: Induction of cell cycle arrest in human HT-29 cells assessed as subG1 phase accumulation at 1 uM incubated for 48 hrs by PI staining based flow cytometry analysis (reference value: 0.06 %); type: functional
# HT-29 [29] = assay: Induction of cell cycle arrest in human HT-29 cells assessed as G1 phase accumulation at 5 uM incubated for 48 hrs by PI staining based flow cytometry analysis (reference value: 56.39 %); type: functional
# HT-29 [30] = assay: Induction of cell cycle arrest in human HT-29 cells assessed as S phase accumulation at 5 uM incubated for 48 hrs by PI staining based flow cytometry analysis (reference value: 36.98 %); type: functional
# HT-29 [31] = assay: Induction of cell cycle arrest in human HT-29 cells assessed as G2 phase accumulation at 5 uM incubated for 48 hrs by PI staining based flow cytometry analysis (reference value: 11.7 %); type: functional
# HT-29 [32] = assay: Induction of cell cycle arrest in human HT-29 cells assessed as subG1 phase accumulation at 5 uM incubated for 48 hrs by PI staining based flow cytometry analysis (reference value: 0.06 %); type: functional
# HT-29 [33] = assay: Induction of cell cycle arrest in human HT-29 cells assessed as G1 phase accumulation at 10 uM incubated for 48 hrs by PI staining based flow cytometry analysis (reference value: 56.39 %); type: functional
# HT-29 [34] = assay: Induction of cell cycle arrest in human HT-29 cells assessed as S phase accumulation at 10 uM incubated for 48 hrs by PI staining based flow cytometry analysis (reference value: 36.98 %); type: functional
# HT-29 [35] = assay: Induction of cell cycle arrest in human HT-29 cells assessed as G2 phase accumulation at 10 uM incubated for 48 hrs by PI staining based flow cytometry analysis (reference value: 11.7 %); type: functional
# HT-29 [36] = assay: Induction of cell cycle arrest in human HT-29 cells assessed as subG1 phase accumulation at 10 uM incubated for 48 hrs by PI staining based flow cytometry analysis (reference value: 0.06 %); type: functional
# HT-29 [37] = assay: Induction of cell cycle arrest in human HT-29 cells assessed as reduction in cyclin D1 level incubated for 48 hrs by Western blot analysis; type: functional, cell-based; conditions: dose 1-10 µM
# HT-29 [38] = assay: Induction of cell cycle arrest in human HT-29 cells assessed as reduction in CDK4 level incubated for 48 hrs by Western blot analysis; type: functional, cell-based; conditions: dose 1-10 µM
# HT-29 [39] = assay: Induction of ROS accumulation in human HT-29 cells at 1 to 10 uM incubated for 12 hrs by […] and DAPI staining based luminescence spectrometer; type: functional, cell-based; conditions: dose 1-10 µM
# HT-29 [40] = assay: Induction of apoptosis in human HT-29 cells assessed as viable cells at 15 uM incubated for 48 hrs by annexin V-FITC and PI staining based flow cytometry analysis (reference value: 88.2 %); type: functional; conditions: read-out: Activity
# HT-29 [41] = assay: Induction of apoptosis in human HT-29 cells assessed as early apoptotic cells at 15 uM incubated for 48 hrs by annexin V-FITC and PI staining based flow cytometry analysis (reference value: 1.01 %); type: functional
# HT-29 [42] = assay: Induction of apoptosis in human HT-29 cells assessed as necrotic cells at 15 uM incubated for 48 hrs by annexin V-FITC and PI staining based flow cytometry analysis (reference value: 9.68 %); type: functional
# HT-29 [43] = assay: Induction of cell cycle arrest in human HT-29 cells assessed as G1 phase accumulation at 15 uM incubated for 48 hrs by PI staining based flow cytometry analysis (reference value: 56.39 %); type: functional
# HT-29 [44] = assay: Induction of cell cycle arrest in human HT-29 cells assessed as S phase accumulation at 15 uM incubated for 48 hrs by PI staining based flow cytometry analysis (reference value: 36.98 %); type: functional
# HT-29 [45] = assay: Induction of cell cycle arrest in human HT-29 cells assessed as G2 phase accumulation at 15 uM incubated for 48 hrs by PI staining based flow cytometry analysis (reference value: 11.7 %); type: functional
# HT-29 [46] = assay: Induction of cell cycle arrest in human HT-29 cells assessed as subG1 phase accumulation at 15 uM incubated for 48 hrs by PI staining based flow cytometry analysis (reference value: 0.06 %); type: functional
structure (smiles),measurement,setting,value
COc1ccc(C(=O)Oc2ccc(NC(=O)Nc3ccc(Cl)c(C(F)(F)F)c3)cc2)cc1,IC50,HT-29 [1],33.8 µM
same,IC50,A549,16.1 µM
O=C(Nc1ccc(OC(=O)c2ccc(Cl)cc2)cc1)Nc1ccc(Cl)c(C(F)(F)F)c1,IC50,HT-29 [1],8.32 µM
same,IC50,A549,6.62 µM
O=C(Cc1ccccc1)Nc1ccc(NC(=O)Nc2ccccc2)cc1,IC50,HT-29 [1],3.38 µM
same,IC50,A549,0.63 µM
same,inhibition,[2],Dose-dependent effect
same,inhibition,[3],Dose-dependent effect
same,inhibition,[4],Dose-dependent effect
same,inhibition,[5],Dose-dependent effect
same,inhibition,[6],Dose-dependent effect
same,Activity,HT-29 [7],Dose-dependent effect
same,Activity,HT-29 [8],Dose-dependent effect
same,viability at 1 µM,HT-29 [9],82.4%
same,Activity,HT-29 [10],1.46%
same,Activity,HT-29 [11],1.93%
same,Activity,HT-29 [12],14.2%
same,viability at 5 µM,HT-29 [13],86.8%
same,Activity,HT-29 [14],3.09%
same,Activity,HT-29 [15],2.18%
same,Activity,HT-29 [16],7.95%
same,viability at 10 µM,HT-29 [17],85.6%
same,Activity,HT-29 [18],2.22%
same,Activity,HT-29 [19],5.46%
same,Activity,HT-29 [20],6.75%
same,Activity,HT-29 [21],Dose-dependent effect
same,Activity,HT-29 [22],Active
same,Activity,HT-29 [23],Active
same,Activity,HT-29 [24],Active
same,Activity,HT-29 [25],61.96%
same,Activity,HT-29 [26],29.67%
same,Activity,HT-29 [27],11.64%
same,Activity,HT-29 [28],0.43%
same,Activity,HT-29 [29],63.44%
same,Activity,HT-29 [30],18.48%
same,Activity,HT-29 [31],18.18%
same,Activity,HT-29 [32],7.45%
same,Activity,HT-29 [33],60.9%
same,Activity,HT-29 [34],15.84%
same,Activity,HT-29 [35],27.49%
same,Activity,HT-29 [36],3.45%
same,Activity,HT-29 [37],Dose-dependent effect
same,Activity,HT-29 [38],Dose-dependent effect
same,Activity,HT-29 [39],Active
O=C(Nc1ccccc1)Nc1ccc(OC(=O)c2ccc([N+](=O)[O-])cc2)cc1,IC50,HT-29 [1],185 µM
same,IC50,A549,120 µM
CNC(=O)c1cc(Oc2ccc(NC(=O)Nc3ccc(Cl)c(C(F)(F)F)c3)cc2)ccn1 [SORAFENIB],IC50,HT-29 [1],17.3 µM
same,IC50,A549,5.62 µM
same,viability at 15 µM,HT-29 [40],81.3%
same,Activity,HT-29 [41],5.76%
same,Activity,HT-29 [42],8.72%
same,Activity,HT-29 [43],75.23%
same,Activity,HT-29 [44],12.19%
same,Activity,HT-29 [45],14.54%
same,Activity,HT-29 [46],1.69%
O=C(Nc1ccc(F)cc1)Nc1ccc(OC(=O)c2ccccc2)cc1,IC50,HT-29 [1],94.4 µM
same,IC50,A549,29.7 µM
O=C(Nc1ccccc1)Nc1ccc(OC(=O)c2ccc(F)cc2)cc1,IC50,HT-29 [1],128 µM
same,IC50,A549,38.5 µM
O=C(Nc1ccccc1)Nc1ccc(OC(=O)Cc2ccccc2)cc1,IC50,HT-29 [1],185 µM
same,IC50,A549,153 µM
Cc1ccc(C(=O)Oc2ccc(NC(=O)Nc3ccccc3)cc2)cc1,IC50,HT-29 [1],19.9 µM
same,IC50,A549,18.9 µM
